# Where “and” joins values, the source holds several entries; their conditions need not be identical. Equal values may be shown once.
# Molecular target: Nonstructural protein 3 (Zika virus, UniProt A0A024AXB9)
# Test: Functional biochemical assay to identify treatments for viral infectious disease that targets Zika NS2B-NS3 protease. Utilizing a direct enzyme activity measurement method, reading the fluorescence intensity is used to characterize the relative potency of inhibitors as IC50.
# Set-up: species or system PRVABC59
# Nonstructural protein 3, sequence (A0A024AXB9 whole entry): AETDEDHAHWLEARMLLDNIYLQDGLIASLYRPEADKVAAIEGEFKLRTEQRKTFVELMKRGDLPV
row,SMILES,IC50
1,Cn1nc([C@H](C#N)Nc2cccc([C@H]3CCOC3)c2)cc1C1CC1,> 25 µM
2,Cc1ncc2c(n1)CCC[C@H]2NC(=O)c1cccc2c1CC(=O)N2,> 25 µM
3,O=C(O)c1ccc(-c2cc(NC(=O)c3cc(F)cc4[nH]ncc34)cc3c2CNC3)cc1,0.035 µM and 0.029 µM
4,O=C(Nc1ccc2c(c1)CNC2)c1cc(F)cc(C=C2CCS(=O)(=O)CC2)c1,0.645 µM
5,NCCc1csc2cc(C(=O)Nc3cc([C@H]4CCOC4)ccn3)ccc12,> 25 µM
6,O=C1Cc2c(cccc2C(=O)N[C@H]2C[C@H](OC(F)F)C2)N1,> 25 µM
7,O=C(Nc1ccc2c(c1)CNC2)c1cc(F)cc(-c2cn[nH]c2)c1,0.034 µM and 0.023 µM
8,N#Cc1cccc(-c2nc3c(C(=O)Nc4ccc5c(c4)CNC5)cc(F)cc3[nH]2)c1,33 nM (2×) and 13 nM
9,O=C(Nc1cc2c(c(-c3c[nH]c(=O)c(F)c3)c1)CNC2)c1cc(F)cc2[nH]ncc12,0.025 µM and 0.015 µM
10,COC[C@]1(c2nc3c(C(=O)Nc4ccc5c(c4)CNC5)cc(F)cc3[nH]2)CCOC1,0.344 µM
11,N#Cc1c[nH]c2ccc(C(=O)Nc3ccc4c(c3)CNC4)cc12,0.494 µM
12,O=C(Nc1ccc2c(c1)CNC2)c1cc(F)cc(C2=CCCOC2)c1,0.295 µM
13,COc1cc(OC)cc([C@H]2CCN(C(=O)Nc3ccc4c(c3)CNC4)C2)c1,> 25 µM
14,O=C(NCCCF)[C@H](Nc1ccc2c(c1)CNC2)c1cc(Cl)cc(C2CC2)c1,0.059 µM and 0.033 µM
15,O=C(Nc1ccc2c(c1)CNC2)c1cc(F)cc(-c2ccc3c(=O)[nH]ncc3c2)c1,0.456 µM and 0.295 µM
16,C=CC[C@H]1NCc2cc(NC(=O)c3ccc4c(c3)CC(=O)N4)ccc21,> 25 µM
17,O=C1Cc2c(cccc2C(=O)N[C@H]2CCC[C@@H](C(=O)NC3CC3)C2)N1,> 25 µM
18,O=C(Nc1ccc2c(c1)CNC2)c1ccc2ncsc2n1,23.5 µM
19,Brc1cc(CNc2ccc3c(c2)CNC3)c2cc[nH]c2c1,4.32 µM
20,O=C(Nc1cc(-c2cccnc2)ccn1)c1cc(C2CC2)on1,> 25 µM
21,CC(C)n1cc(C(=O)Nc2cc(-c3cccnc3)ccn2)cn1,> 25 µM
22,O=C1Cc2c(cccc2C(=O)NC[C@H]2C[C@@H](n3cccn3)C2)N1,> 25 µM

row,SMILES,IC50
1,Cc1nc(C2CC2)[nH]c1C(=O)Nc1cc(-c2cccnc2)ccn1,> 25 µM
2,O=C(Nc1cc(-c2cccnc2)ccn1)c1cn2c(n1)CCC2,> 25 µM
3,O=C(NCCOCC1CC1)[C@H](Nc1ccc2c(c1)CNC2)c1cc(Cl)cc(C2CC2)c1,0.079 µM and 0.05 µM
4,CC1(c2nc(C(=O)Nc3cc(-c4cccnc4)ccn3)no2)CC1,> 25 µM
5,COC(=O)c1cc(C(=O)Nc2ccc3c(c2)CNC3)cc2[nH]ccc12,> 25 µM
6,O=C1Cc2c(cccc2C(=O)N[C@H]2CC[C@H](OC3CCCC3)CC2)N1,> 25 µM
7,N#Cc1cc2c(cc1NC(=O)c1cc(F)cc3[nH]ncc13)CNC2,16 nM (2×) and < 12 nM
8,Cc1nc(C2(NC(=O)c3cccc4c3CC(=O)N4)CCC2)no1,> 25 µM
9,Cc1c(C(=O)Nc2cc(-c3cccnc3)ccn2)cc(C#N)n1C,> 25 µM
10,C[C@H]1C[C@H]1c1cc(C(=O)Nc2cc(-c3cccnc3)ccn2)no1,> 25 µM
11,O=C1Cc2c(cccc2C(=O)NC2(c3ncccc3F)CC2)N1,> 25 µM
12,CC1=C(c2cc(F)cc(C(=O)Nc3ccc4c(c3)CNC4)c2)CCCC1,> 25 µM
13,Cc1[nH]c(-c2ccccc2)cc1C(=O)Nc1cc(-c2cccnc2)ccn1,> 25 µM
14,CC(C)NC(=O)[C@H](Nc1ccc2c(c1)CN(C)C2)c1cc(Cl)cc2[nH]ncc12,0.533 µM
15,Fc1cc(CNc2ccc3c(c2)CNC3)c2cc[nH]c2c1,9.31 µM
16,C=Cc1cc2c(cc1NC(=O)c1cc(F)cc3[nH]ncc13)CNC2,0.045 µM and 0.028 µM
17,O=C(Nc1cc(-c2cccnc2)ccn1)c1nc(Br)n2c1CNCC2,> 25 µM
18,O=C(Nc1ccc2c(c1)CNC2)c1cc(F)cc2[nH]c(-c3ccccc3F)nc12,23 nM (2×) and 13 nM
19,CC(C)(O)c1cncc(NC(=O)c2cccc3c2CC(=O)N3)c1,> 25 µM
20,O=C1Cc2c(cc(F)cc2C(=O)Nc2cc([C@H]3CCOC3)ccn2)N1,> 25 µM
21,CCc1cccc(-c2nc3c(C(=O)Nc4ccc5c(c4)CNC5)cc(F)cc3[nH]2)c1,53 nM (2×) and 32 nM
22,O=C1Cc2c(cccc2C(=O)N[C@H]2C[C@H](c3ccon3)C2)N1,> 25 µM

row,SMILES,IC50
1,O=C(Nc1ccc2c(c1)CNC2)c1cc(F)cc2[nH]c(-c3ccc(F)cc3)nc12,0.022 µM and 0.023 µM and 0.014 µM
2,O=C(O)CCCc1cc(NC(=O)c2cc(F)cc3[nH]ncc23)cc2c1CNC2,0.062 µM and 0.038 µM
3,Cc1c(C(=O)Nc2cc(-c3cccnc3)ccn2)c2ccccc2n1C,> 25 µM
4,O=C(Nc1ccc2c(c1)CNC2)c1cc(F)c2[nH]nnc2c1,> 25 µM
5,O=C(Nc1ccc2c(c1)CNC2)c1cc(F)cc(C2=CCOCC2)c1,0.362 µM
6,C=CC[C@H]1NCc2cc(N[C@H](C(=O)NCC(F)F)c3cc(Cl)cc(C4CC4)c3)ccc21,0.21 µM
7,COc1ccc([C@@H]2C[C@H]2NC(=O)c2cccc3c2CC(=O)N3)cc1,> 25 µM
8,COc1cc(-c2cc(NC(=O)c3cc(F)cc4[nH]ncc34)cc3c2CNC3)ccn1,0.033 µM and 0.03 µM and 0.023 µM
9,O=C(Nc1cc(-c2cccnc2)ccn1)c1cnn2c1CCCC2,8.03 µM
10,COC(=O)c1cc2c(cc1NC(=O)c1cc(F)cc3[nH]ncc13)CNC2,0.05 µM and 0.029 µM
11,COCCNC(=O)[C@H](Nc1cccc([C@H]2CCOC2)c1)c1cc(Br)cc2[nH]ccc12,> 25 µM
12,NCCc1csc2cc(C(=O)Nc3ccc4c(c3)CNC4)ccc12,0.144 µM
13,O=C(Nc1ccc2c(c1)CN[C@H]2C[C@H](O)CO)c1cc(Cl)cc2[nH]ncc12,0.198 µM
14,O=C(Nc1ccc2c(c1)CNC2)c1cc(F)c2[nH]c(=O)[nH]c2c1,0.429 µM
15,O=C(Nc1cc(-c2cccnc2)ccn1)c1cc(C2CC2)oc1C1CC1,> 25 µM
16,O=C(Nc1cc2c(c(C3=CCS(=O)(=O)CC3)c1)CNC2)c1cc(F)cc2[nH]ncc12,0.038 µM and 0.03 µM and 0.026 µM
17,O=C(Nc1cc2c(c(-c3ccnnc3)c1)CNC2)c1cc(Cl)cc2[nH]ncc12,0.062 µM and 0.035 µM
18,Clc1ccc2[nH]ncc2c1[C@@H]1C[C@H]1c1ccc2c(c1)CNC2,22.4 µM
19,O=C(Nc1cc(-c2cccnc2)ccn1)c1sc2c(c1Br)CNC2,> 25 µM
20,Cn1ncc(C(=O)Nc2cc(-c3cccnc3)ccn2)c1C1CC1,20.8 µM
21,O=C(Nc1cc2c(c(C3=CCOCC3)c1)CNC2)c1cc(F)cc2[nH]ncc12,0.028 µM and 0.025 µM and 0.02 µM
22,O=C1Cc2c(cccc2C(=O)NCC2(F)CC3(CCOCC3)C2)N1,> 25 µM

# Other lines, results leading:
row,IC50,SMILES
1,> 25 µM,Cc1c(C(=O)Nc2ccc3c(c2)C(=O)N(C)C3)cc(C2CC2)n1C
2,> 25 µM,Cc1c(C(=O)Nc2ccc3c(c2)CCS3(=O)=O)cc(C2CC2)n1C
3,> 25 µM,Cc1cc(NC(=O)c2cc(C3CC3)n(C)c2C)ccc1N1CCCC1=O
4,> 25 µM,Cc1c(C(=O)Nc2ccc3c(c2)CCCC(=O)N3C)cc(C2CC2)n1C
5,> 25 µM,CC(=O)N1CCCc2cc(NC(=O)c3cc(C4CC4)n(C)c3C)ccc21
6,> 25 µM,Cc1c(C(=O)Nc2ccc3c(c2)CCCC(=O)N3)cc(C2CC2)n1C
7,0.269 µM,CC(C)Cn1cc2c(C(=O)Nc3ccc4c(c3)CNC4)cc(Cl)cc2n1
8,0.132 µM,O=C(Nc1ccc2c(c1)CNC2)c1cc(Cl)cc2nn(C3CCOCC3)cc12
9,> 25 µM,Cc1c(C(=O)Nc2cccc(-c3ccc(=O)[nH]n3)c2)cc(C2CC2)n1C
10,0.199 µM,COC(=O)[C@H](C)n1cc2c(C(=O)Nc3ccc4c(c3)CNC4)cc(Cl)cc2n1
11,0.08 µM and 0.054 µM,COCn1ncc2c(C(=O)Nc3ccc4c(c3)CNC4)cc(Cl)cc21
12,0.054 µM and 0.042 µM,CO[C@H]1C[C@H](n2ncc3c(C(=O)Nc4ccc5c(c4)CNC5)cc(Cl)cc32)C1
13,0.632 µM,CC(C)c1nn(C)cc1-c1cc(F)cc(C(=O)Nc2ccc3c(c2)CNC3)c1
14,0.539 µM,O=C(Nc1ccc2c(c1)CNC2)c1cc(Cl)cc2nn(C3COC3)cc12
15,0.264 µM,CN1C(=O)CC[C@H]1c1nc2c(C(=O)Nc3ccc4c(c3)CNC4)cc(F)cc2[nH]1
16,> 25 µM,CCOc1cccc(-c2cccc(NC(=O)c3cc(C4CC4)n(C)c3C)n2)c1
17,> 25 µM,Cc1c(C(=O)Nc2cccc(-c3ccc(O)nc3)c2)cc(C2CC2)n1C
18,> 25 µM,Cc1nn(C)c(C)c1[C@H]1CCCN1C(=O)Nc1ccc2c(c1)CNC2
19,0.136 µM,O=C(Nc1ccc2c(c1)CNC2)c1cc(Cl)cc2c1cnn2C[C@H]1CCCO1
20,0.171 µM,C[C@]1(O)C(=O)Nc2cc(F)cc(C(=O)Nc3ccc4c(c3)CNC4)c21

row,IC50,SMILES
1,> 25 µM,Cc1c(C(=O)Nc2ccc3c(c2)CS(=O)(=O)C3)cc(C2CC2)n1C
2,> 25 µM,COC(=O)N1CCc2cc(NC(=O)c3cc(C4CC4)n(C)c3C)ccc21
3,1.61 µM,CCc1cc(C(=O)Nc2ccc3c(c2)CNC3)cc2cn[nH]c12
4,0.186 µM,CC(C)n1ncc2c(C(=O)Nc3ccc4c(c3)CNC4)cc(Cl)cc21
5,> 25 µM,Cc1cc(=O)[nH]c(-c2cccc(NC(=O)c3cc(C4CC4)n(C)c3C)c2)n1
6,> 25 µM,Cc1ccc(NC(=O)c2cc(C3CC3)n(C)c2C)cc1-c1cccnc1
7,0.058 µM and 0.033 µM,O=C(Nc1ccc2c(c1)CNC2)c1cc(Cl)cc2c1cnn2C1CCOCC1
8,> 25 µM,Cc1c(C(=O)Nc2cccc(-c3cncnc3O)c2)cc(C2CC2)n1C
9,> 25 µM,Cc1c(NC(=O)c2cccc3c2CC(=O)N3)cnn1C1CCOCC1
10,> 25 µM,COCCN1C(=O)CCc2cc(NC(=O)c3cc(C4CC4)n(C)c3C)ccc21
11,> 25 µM,Cc1c(C(=O)Nc2cccc(Cn3ccccc3=O)c2)cc(C2CC2)n1C
12,0.405 µM and 0.264 µM,CC(C)(c1nc2c(C(=O)Nc3ccc4c(c3)CNC4)cc(F)cc2[nH]1)S(C)(=O)=O
13,0.046 µM and 0.034 µM,CC(C)n1cc2c(C(=O)Nc3ccc4c(c3)CNC4)cc(Cl)cc2n1
14,> 25 µM,Cc1c(C(=O)Nc2cccc(C(=O)NC3CC3)c2)cc(C2CC2)n1C
15,> 25 µM,Cc1c(C(=O)Nc2cc(C#N)cn(C)c2=O)cc(C2CC2)n1C
16,> 25 µM,O=C1C[C@H]2CN(C(=O)Nc3ccc4c(c3)CNC4)CC[C@H]2N1
17,6.85 µM,Cn1c(=O)[nH]c2cc(C(=O)Nc3ccc4c(c3)CNC4)cc(Br)c21
18,0.188 µM,CCCn1ncc2c(C(=O)Nc3ccc4c(c3)CNC4)cc(Cl)cc21
19,> 25 µM,Cc1cc(NC(=O)c2cc(C3CC3)n(C)c2C)cnc1N1CCCCC1
20,0.031 µM and 0.023 µM,O=C(Nc1ccc2c(c1)CNC2)c1cc(Cl)cc2c1cnn2C1CCC1
